This is an account of results in US7018813B2 (priority 2000, dated 2006).

Like-named read-outs stand apart in the source and are kept apart here.

For data set [1] the following is noted: at 25° C.; cited from earlier work.
The conditions of data set [2]: cited from earlier work.
Data set [3] deals with B. pertussis strain ATCC 9797 or CS87. It counts as cell-based, Bordetella pertussis.

As to BaSO4, the Ksp in data set [1] is 1.05 × 10^−10. In addition, the solubility in water was 10.7 µM in data set [2] (at 25° C.) and 17.7 µM in data set [2] (at 100° C.).

In the case of `O=S(=O)([O-])[O-].[Sr+2]` [SrSO4], the Ksp in data set [1] is given as 3.42 × 10^−7. For the compound `O=S(=O)([O-])[O-].[Pb+2]` [PbSO4], the Ksp in data set [1] was 1.82 × 10^−8. Consider Barium chloride [BaCl2], for which the “amount of PT” value in data set [3] was found to be 0.525 μg/mL/OD650. On to `O=S(=O)([O-])[O-].[Ag+].[Ag+]` [AgSO4], for which, in data set [1], the Ksp is recorded as 1.19 × 10^−5.
